In publication PMC7887271, “Fast acting allosteric phosphofructokinase inhibitors block trypanosome glycolysis and cure acute African trypanosomiasis in mice” (Nature Communications, 2021):
“And” between values parts separate entries of the source, which are not always exact repeats. Identical values can stand only once. “Also recorded” adds a separate entry of the source. Like-named read-outs stand apart in the source and are kept apart here.

Tests used:
[1] = Pharmacokinetic studies in mice (IV and PO); format: in vivo, female CD-1 mice; conditions: female; for AUC(0-inf): read-out: AUC (infinity)
Method: PK parameters for the lead compounds were determined using three mice per data point (Supplementary Methods 6.1).
Blood samples were collected from terminal cardiac puncture at 0.08 (IV only), 0.25, 0.5, 1 (PO only), 2, 4, 8 and 24 hour time points. The whole blood was centrifuged to obtain plasma. Brains were also collected following cardiac perfusion from both sets of animals at 2 hours. Analysis of the biological samples was carried out by the company Selcia. Plasma proteins were precipitated by addition of PBS (1 volume) followed by 3 volumes of acetonitrile containing internal standard (verapamil). Following filtration through a protein precipitation plate the eluent was dried under nitrogen and re-suspended in mobile phase prior to analysis. Individual brains were homogenised in PBS and diluted to 10% w/v and divided into aliquots consisting of brain homogenate (1 volume, 0.3 ml) and 3 volumes (0.9 ml) of acetonitrile containing internal standard. Samples were centrifuged and supernatants removed and taken through a protein precipitation plate alongside an appropriate standard. Eluents were dried under nitrogen and re-suspended in mobile phase prior to analysis. Eluents were analysed by LC-MS/MS using a Phenomenex Gemini NX column (C18,30 x 2.1 mm, 3 micron). Analysis of the data was carried out using PK solutions software.

[2] = tested on: T. b. brucei Lister 427; experiment: Mouse model of stage 1 HAT; format: in vivo, T. b. brucei in female CD-1 mice
Method: T. b. brucei Lister 427 infection is cured by 1-day dosing. […] These parasites have a doubling time of ~6 h and infection with 1 × 10^5 parasites usually requires euthanasia of mice within 4–5 days of infection in the absence of drug treatment. Drug efficacy is determined by taking regular blood samples from infected mice and checking microscopically for parasitaemia. In this model of acute infection a single surviving parasite should proliferate to reach detectable levels in ~5 days and a 30-day period of no parasite detection is considered as cure.
For the mouse model of stage 1 HAT T. b. brucei Lister 427 parasites (1 × 10^5) were injected into a single donor female CD-1 mouse (University of Edinburgh; 6–8 weeks old) intraperitoneally in D-PBS containing 10 mM glucose. Parasites for subsequent stage 1 HAT infection were obtained from whole blood via cardiac puncture, under gaseous isoflurane anaesthesia. Parasites (1 × 10^3) harvested from the donor mouse were then injected into the peritoneum of female CD-1 mice (University of Edinburgh; 6–8 weeks old) in D-PBS containing 10 mM glucose. One day after infection, animals were either left untreated (n = 3) or dosed orally by gavage (n = 5) with CTCB compound in Cremophor EL: EtOH: D-PBS (30:10:60 v/v; Supplementary Methods 6.3).
T. b. brucei Lister 427 parasites (1 x 10^5) were injected into a single donor female CD-1 mouse (University of Edinburgh; 6-8 weeks old) intraperitoneally in D-PBS containing 10 mM glucose. Parasites for subsequent Stage 1 HAT infection were obtained from whole blood via cardiac puncture, under gaseous isoflurane anaesthesia as described above. Parasites (1 x 10^3) harvested from the donor mouse were then injected into the peritoneum of female CD-1 mice (University of Edinburgh; 6-8 weeks old) in D-PBS containing 10mM glucose. One day after infection, animals were either left untreated (n=3) or dosed orally by gavage (n=5) with CTCB compound in Cremophor EL: EtOH : D-PBS (30:10:60 v/v). The veterinary trypanocidal drug pentamidine isethionate (2.5 mg/kg for 4 consecutive days after infection) was administered intraperitoneally as control (n=3) for parasite elimination. Mice were monitored daily for parasitaemia day 1 post-infection onwards. Trypanosomes were quantified in blood samples from the tail vein by microscopy as previously described (12). Animals were sacrificed on the day that parasites were first detected in blood samples. (Supplementary Figure 11)

[3] = Tolerance studies and plasma levels after multiple oral dosing; format: in vivo; conditions: for Experimental plasma concentration measured @2hr after final dose: 2 h intervals
Method: All efficacy studies were carried out using CD-1 mice in accordance with the United Kingdom Animals (Scientific Procedures) Act (1986) under Home Office regulations. Studies were performed in SPF facilities at the University of Edinburgh under licence PPL 70/8102 and at the University of Glasgow under PPL 60/4442. The experiments were approved by the local ethics committees of the respective universities. Dosing regimens used in efficacy studies were first tested for tolerance in female CD-1 mice (University of Edinburgh; 6–8 weeks old). Animals were dosed orally by gavage with CTCB compounds following the dosing regimen for each individual experiment (n = 5; Supplementary Methods 6.2).
Dosing regimens used in efficacy studies were first tested for tolerance in female CD-1 mice (University of Edinburgh; 6-8 weeks old). Animals were dosed orally by gavage with CTCB compounds following the dosing regimen for each individual experiment (n=5) as indicated. Compounds were administered in a mixture containing Cremophor EL: EtOH: D-PBS (30:10:60 v/v). Animals were monitored for up to 8 hours post-dosing. On the final day of dosing, 2 hours after the final dose, whole blood was harvested from three mice via cardiac puncture, under gaseous isoflurane anaesthesia, to obtain plasma for analyses. The remaining two mice were monitored for several days post dosing. To avoid coagulation, 100 μl of 2% sodium citrate was utilised in the syringe during the procedure and blood samples subsequently transferred to heparin coated microtubules. Blood samples were centrifuged at 800 x g for 10 minutes at room temperature. The supernatant containing the plasma was transferred to a fresh tube for determination of compound levels and further PK analysis.

[4] = CD-1, mouse, plasma, oral, 5 mg/kg, 5 mg/kg oral dose (PO), mouse (female, CD-1), read-out: Plasma concentration, Mean
[5] = CD-1, mouse, plasma, oral, 5 mg/kg, 5 mg/kg oral dose (PO), mouse (female, CD-1), read-out: Plasma concentration, individual animal
[6] = CD-1, plasma, mouse, PO 5 mg kg^−1

## CN(C)CCn1ccc2c(ccn2Cc2ccc(Cl)c(Cl)c2)c1=O [CTCB-405, 1-[(3,4-Dichlorophenyl)methyl]-5-[2-(dimethylamino)ethyl] pyrrolo[3,2-c]pyridin-4-one]
[1]; CD-1, mouse, plasma, oral, 5 mg/kg, 5 mg/kg oral dose (PO), mouse (female, CD-1), 0.5 h, read-out: Plasma concentration, individual animal
  concentration at 0.5 h: 105 ng/mL and 288 nM
[1]; CD-1, mouse, plasma, oral, 5 mg/kg, 5 mg/kg oral dose (PO), mouse (female, CD-1), 1 h
  concentration at 1 h: 153 ng/mL and 421 nM
[1]; CD-1, mouse, plasma, oral, 5 mg/kg, 5 mg/kg oral dose (PO), mouse (female, CD-1), 2 h
  concentration at 2 h: 208 ng/mL and 572 nM
[1]; [4]
  concentration at 4 h: 89 ng/mL and 244 nM
  concentration at 8 h: 8.2 ng/mL and 22.5 nM
[1]; [5]
  concentration at 4 h: 94.3 ng/mL and 259 nM
  concentration at 8 h: 7.3 ng/mL and 20 nM
[1]; CD-1, plasma, mouse, IV 1 mg kg^−1
  AUC(0-inf): 260 ng·h/mL
[1]; CD-1, plasma, mouse, IV 1 mg kg^−1, read-out: CL/kg (converted)
  clearance: 63.3 mL/min/kg
[1]; CD-1, plasma, mouse, IV 1 mg kg^−1, read-out: Elimination t1/2 (converted)
  half-life: 2.7 h
[1]; CD-1, plasma, mouse, IV 1 mg kg^−1, read-out: Vd (area)
  Vd: 12.3 L/kg
[1]; [6]
  Cmax: 206 ng/mL
  Tmax: 0.3 h
  AUC(0-inf): 704 ng·h/mL
[1]; CD-1, plasma, mouse, PO 5 mg kg^−1 vs IV 1 mg kg^−1, read-out: Bioavailability (F%)
  bioavailability: 54%
[2]; single oral doses of 50 mg kg^−1 over four consecutive days
  delay of onset of parasitaemia: up to 12 days
[2]; three oral 50 mg kg^−1 doses 2 h apart daily over 2 days, n = 5
  outcome of treatment: parasite clearance; also recorded: complete cure; also recorded: either complete clearance or a significant increase in survival
[2]; three oral doses of 100 mg kg^−1 2 h apart on a single day, n = 5
  outcome of treatment: parasites are undetectable; also recorded: no recurrence of parasitaemia 30 days post infection
[2]; three oral doses of 100 mg kg^−1 at 2 h intervals on 1 day, cure = no parasitaemia for >30 days
  infected mice with complete cure: 5/5
[2]; two daily oral doses at 25 mg/kg delivered 4 hours apart, n=5
  outcome of treatment: prolongs survival but does not improve efficacy
[3]; 3 x 50 mg/kg oral
  Experimental plasma concentration measured @2hr after final dose: 6.8 ± 2.1 µM
[3]; 3 x 100 mg/kg oral
  Experimental plasma concentration measured @2hr after final dose: 9.8 ± 3.1 µM
[3]; mice, oral
  tolerance of high doses: well tolerated
[3]; three doses at 100 mg kg^−1 given on two consecutive days
  plasma levels: 9.8 µM
[3]; up to 300 mg kg^−1 per day
  autopsied livers: appeared normal
[3]; up to 300 mg kg^−1 per day, cumulative dosing tolerance studies
  apparent toxicity: no apparent toxicity
